{"source": "patent US8080579B2", "about": "“Compositions and methods for treatment of inflammatory bowel disease” (The Regents of The University of Michigan, priority 2005, dated 2011)", "key": {"[1]": {"system": "angiotensin converting enzyme (ACE)", "assay": "IEL ACE mRNA by real time PCR, short bowel syndrome model", "type": "in vivo, mice", "conditions": "enalaprilat 0.6 mg/kg/day i.p., 7 days", "description": "(§1) Short Bowel Syndrome Model: A 70% mid-small bowel resection was performed (i.e. bowel between 3.5 cm distal to the ligament of Treitz and 3.5 cm proximal to the ileocecal valve), followed by an end-to-end jejuno-ileal anastomosis with 7-0 monofilament, absorbable suture. Postoperatively a subcutaneous bolus of 3 ml 0.9% saline solution was given to maintain hydration status.\n(§2) Sham operation: Mid-small bowel was transsected and re-anastomosed without bowel-resection.\nIEL purification: Isolation of purified IEL from EC was performed by direct magnetic separation. Magnetic beads conjugated with antibody to CD45 (pan-lymphoid marker) were used to segregate IEL from EC (BioMag SelectaPure Anti-Mouse CD 45R Antibody Particles, Polyscience Inc., Warrington, Pa.). Magnetic separation was performed twice to further deplete EC. […]\nReal time PCR: Real-time PCR was run to better quantify actual changes in ACE expression. cDNA was also used for real time PCR. The same primers for ACE and β-actin were used as for conventional PCR, SYBR Green I was utilized for fluorescence. […] Ct-values of ACE and β-actin were converted to numbers of cDNA copies, and results expressed as the ratio of ACE over β-actin expression.\n(§3) To further understand the relevance of ACE expression on EC apoptosis, ACE-inhibition was used. […] After 1 week, mice were killed, EC apoptotic rates assessed, and IEL mRNA and protein isolated."}, "[2]": {"system": "angiotensin converting enzyme (ACE)", "assay": "IEL ACE protein by immunoblot, short bowel syndrome model", "type": "in vivo, mice", "conditions": "enalaprilat 0.6 mg/kg/day i.p., 7 days", "description": "as §1, §2\n(§4) IEL purification: Isolation of purified IEL from EC was performed by direct magnetic separation. Magnetic beads conjugated with antibody to CD45 (pan-lymphoid marker) were used to segregate IEL from EC (BioMag SelectaPure Anti-Mouse CD 45R Antibody Particles, Polyscience Inc., Warrington, Pa.). […]\nImmunoblot analysis: Protein was extracted from isolated IEL and immunoblots performed by using a Bio-Rad protein assay kit (Bio-Rad Laboratories, Hercules, Calif.), with standard methods. […] Expression for β-actin was determined in the same fashion by re-probing membranes with purified anti-mouse β-actin (1:12000, Sigma-Aldrich, St. Louis, Mo.). Results are expressed as the ratio of ACE over β-actin protein expression.\nas §3"}, "TNF-α": {"system": "TNF-α", "assay": "IEL TNF-α mRNA by RT-PCR, short bowel syndrome model", "type": "in vivo", "conditions": "Sham operated mice, enalaprilat 0.6 mg/kg/day i.p., 7 days", "description": "as §1, §2, §4\nReverse transcriptase polymerase chain reaction (RT-PCR): mRNA (poly-A positive) was reversed transcribed into cDNA following a standard protocol. […] Gel bands were analyzed by DNA sequencing to ensure the correct product. Kodak EDAS System (Rochester, N.Y.) was used for imaging and quantification. Results were expressed as the ratio of the investigated mRNA over the β-actin mRNA expression.\nas §3"}, "[3]": {"system": "intestinal epithelial cells", "assay": "Epithelial cell proliferation (BrdU), short bowel syndrome model", "type": "in vivo, mice", "conditions": "FIG. 11", "description": "Epithelial cell proliferation: Mice were given a dose of bromodeoxyuridine (BrdU) 1 to 2 hours prior to sacrifice. Tissues harvested from the intestine were subsequently stained for BrdU as a marker of cellular proliferation."}}}
{"compound": "C[C@H](N[C@@H](CCc1ccccc1)C(=O)O)C(=O)N1CCC[C@H]1C(=O)O", "note": "[ACE-I, enalaprilat]", "values": [{"measurement": "IEL ACE mRNA (ratio of ACE-cDNA copies over β-actin-cDNA copies)", "setting": "[1]; SBS mice", "value": "0.63 ± 0.25"}, {"measurement": "IEL ACE mRNA (ratio of ACE-cDNA copies over β-actin-cDNA copies)", "setting": "[1]; Sham operated mice", "value": "0.66 ± 0.22"}, {"measurement": "IEL ACE protein (ratio of ACE over β-actin protein expression)", "setting": "[2]; SBS mice", "value": "0.14 ± 0.03"}, {"measurement": "IEL ACE protein (ratio of ACE over β-actin protein expression)", "setting": "[2]; Sham operated mice", "value": "0.13 ± 0.01"}, {"measurement": "IEL TNF-α mRNA (ratio over β-actin mRNA)", "setting": "TNF-α", "value": "0.37 ± 0.07"}, {"measurement": "Epithelial cell proliferation", "setting": "[3]", "value": "increase significantly"}]}
